Data: patent US20080269298A1, “Benzimidazol-1-YL-thiophene compounds for the treatment of cancer” (priority 2002, published 2008)

What was measured:
[1] = test system: lung (H460) tumor cell line; assay: Methylene Blue Growth Inhibition Assay, H460; assay type: cell-based; conditions: Homo sapiens, NCI-H460, 72 h; Cell Line H460, 3 days; read-out: MeB IC50
Method in brief: (§1)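 Growth inhibition is measured as methylene blue-stained biomass (OD 620 nm) after 3 days of compound treatment, relative to vehicle controls. Cells grow in high-glucose DMEM with 10% FBS and 0.3% final DMSO; IC50 comes from nonlinear regression.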

[2] = test system: colon (HCT116) tumor cell line; assay: Methylene Blue Growth Inhibition Assay, HCT116; assay type: cell-based; conditions: Homo sapiens, HCT-116, 72 h; Cell Line HCT116, 3 days; read-out: MeB IC50
Method in brief: as §1

[3] = test system: prostate (PC3) tumor cell line; assay: Methylene Blue Growth Inhibition Assay, PC3; assay type: cell-based; conditions: Homo sapiens, 72 h; Cell Line PC3, 3 days; read-out: MeB IC50
Method in brief: as §1

PLK1 kinase domain = target: T1, PLK1 kinase domain (Homo sapiens, UniProt P53350); assay: Assay for Inhibition of PLK1 (SPA enzyme activity); assay type: biochemical; conditions: 2 μM ATP, read-out: Ave pIC50 PLK Enzyme Inhibition (converted)
T1 construct: made in house; host or cells: baculovirus-infected T. ni insect cells

[4] = test system: breast tumor (MCF7) cell line; assay: Methylene Blue Growth Inhibition Assay, MCF7; assay type: cell-based; conditions: Homo sapiens, 72 h; Cell Line MCF7, 3 days; read-out: MeB IC50
Method in brief: as §1

[5] = test system: Normal Human foreskin fibroblasts (HFF); assay: Methylene Blue Growth Inhibition Assay, HFF; assay type: cell-based; conditions: 72 h, Cell Line HFF, 3 days, read-out: MeB IC50
Method in brief: as §1

[6] = test system: colon (RKO) tumor cell line; assay: Methylene Blue Growth Inhibition Assay, RKO; assay type: cell-based; conditions: Homo sapiens, 72 h, 3 days, read-out: MeB IC50
Method in brief: as §1

A549 = assay: Methylene Blue Growth Inhibition Assay, A549; assay type: cell-based; conditions: Homo sapiens; Cell Line A549; read-out: MeB IC50

T1 sequence (P53350 21-346): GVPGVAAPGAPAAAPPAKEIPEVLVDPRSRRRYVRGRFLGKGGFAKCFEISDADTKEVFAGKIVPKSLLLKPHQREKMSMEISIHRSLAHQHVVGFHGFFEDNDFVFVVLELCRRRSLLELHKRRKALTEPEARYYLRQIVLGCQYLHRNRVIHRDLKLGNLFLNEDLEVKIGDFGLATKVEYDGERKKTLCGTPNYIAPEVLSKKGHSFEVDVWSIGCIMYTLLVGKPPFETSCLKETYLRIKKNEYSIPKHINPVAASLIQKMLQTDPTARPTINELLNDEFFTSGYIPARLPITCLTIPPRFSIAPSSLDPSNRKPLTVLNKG

Row | SMILES | IC50 [1] [nM] | IC50 [2] [nM] | IC50 [3] [nM] | IC50 (PLK1 kinase domain) [nM] | IC50 [4] [nM] | IC50 [6] [nM] | IC50 (A549) [nM] | IC50 [5] [nM]
1 | CS(=O)(=O)c1ccc2ncn(-c3cc(OCc4ccccc4C(F)(F)F)c(C(N)=O)s3)c2c1 [Example 121] | 1000 to 10000 | 1000 to 10000 | > 10000 | < 100 | 1000 to 10000 | 1000 to 10000 | 1000 to 10000 | > 10000
2 | COc1cc2ncn(-c3cc(OC(C)c4ccccc4Cl)c(C(N)=O)s3)c2cc1OC (centres unmarked) [Example 126, 3-[1-(2-Chlorophenyl)ethoxy]-5-(5,6-dimethoxy-1H-benzimidazol-1-yl)thiophene-2-carboxamide] | < 1000 | < 1000 | 1000 to 10000 |  | 1000 to 10000 | < 1000 | < 1000 | < 1000
3 | COc1cc2c(cc1OCCCN1CCCC1=O)ncn2-c1cc(OCc2ccccc2C(F)(F)F)c(C(N)=O)s1 [Example 134, 5-(6-(Methyloxy)-5-{[3-(2-oxo-1-pyrrolidinyl)propyl]oxy}-1H-benzimidazol-1-yl)-3-({[2-(trifluoromethyl)phenyl]methyl}oxy)-2-thiophenecarboxamide] | 1000 to 10000 | 1000 to 10000 | > 10000 | < 100 | 1000 to 10000 | 1000 to 10000 | 1000 to 10000 | > 10000
4 | NC(=O)c1sc(-n2cnc3ccc(OCC4CCNCC4)cc32)cc1OCc1ccccc1C(F)(F)F [Example 143, 5-{6-[(4-Piperidinylmethyl)oxy]-1H-benzimidazol-1-yl}-3-({[2-(trifluoromethyl)phenyl]-methyl}oxy)-2-thiophenecarboxamide] | 1000 to 10000 | < 1000 | 1000 to 10000 | < 100 | < 1000 | < 1000 | 1000 to 10000 | 1000 to 10000
5 | CS(=O)(=O)CCNC(=O)c1ccc2c(c1)ncn2-c1cc(OCc2ccccc2C(F)(F)F)c(C(N)=O)s1 [Example 155, 1-(5-(Aminocarbonyl)-4-{[2-(trifluoromethyl)benzyl]oxy}thien-2-yl)-N-[2-(methylsulfonyl)ethyl]-1H-benzimidazole-5-carboxamide] | > 10000 | > 10000 | > 10000 | < 100 | > 10000 | > 10000 |  | > 10000
6 | NC(=O)c1sc(-n2cnc3cc(C(=O)NCCN4CCNC4=O)ccc32)cc1OCc1ccccc1C(F)(F)F [Example 156, 1-(5-(Aminocarbonyl)-4-{[2-(trifluoromethyl)benzyl]oxy}thien-2-yl)-N-[2-(2-oXoimidazolidin-1-yl)ethyl]-1H-benzimidazole-5-carboxamide] | > 10000 | > 10000 | > 10000 | < 100 | > 10000 | > 10000 |  | > 10000
7 | CC(Oc1cc(-n2cnc3cc(N)ccc32)sc1C(N)=O)c1ccccc1Cl (centres unmarked) [Example 157, 5-(5-Amino-1H-benzimidazol-1-yl)-3-[1-(2-chlorophenyl)ethoxy]thiophene-2-carboxamide] | < 1000 | < 1000 | < 1000 | < 100 | < 1000 | < 1000 |  | > 10000

Further lines, with some results ahead:

Row | IC50 [1] [nM] | IC50 [2] [nM] | IC50 [3] [nM] | IC50 (PLK1 kinase domain) [nM] | IC50 [4] [nM] | IC50 [6] [nM] | IC50 (A549) [nM] | SMILES | IC50 [5] [nM]
8 | < 1000 | < 1000 | 1000 to 10000 | < 100 | < 1000 | < 1000 | < 1000 | COc1cc2ncn(-c3cc(OCc4cc5c(cc4Cl)OCO5)c(C(N)=O)s3)c2cc1OC [Example 91, 3-[(6-Chloro-1,3-dibenzodioxol-5-yl)methoxy]-5-(5,6-dimethoxy-1H-benzimidazol-1-yl)thiophene-2-carboxamide] | > 10000
9 | 1000 to 10000 | 1000 to 10000 | 1000 to 10000 | < 100 | 1000 to 10000 | < 1000 | 1000 to 10000 | COc1cc2ncn(-c3cc(OCc4cccnc4Cl)c(C(N)=O)s3)c2cc1OC [Example 101, 3-[(2-Chloropyridin-3-yl)methoxy]-5-(5,6-dimethoxy-1H-benzimidazol-1-yl)thiophene-2-carboxamide] | > 10000
10 | 1000 to 10000 | 1000 to 10000 | > 10000 | < 100 | 1000 to 10000 | < 1000 | 1000 to 10000 | COc1cc2ncn(-c3cc(OCc4cccnc4F)c(C(N)=O)s3)c2cc1OC [Example 102, 5-(5,6-Dimethoxy-1H-benzimidazol-1-yl)-3-[(2-fluoropyridin-3-yl)methoxy]thiophene-2-carboxamide] | > 10000
11 | < 1000 | 1000 to 10000 | 1000 to 10000 | < 100 | 1000 to 10000 | < 1000 | < 1000 | COc1cc2ncn(-c3cc(OCc4ccccc4OC(F)(F)F)c(C(N)=O)s3)c2cc1OC [Example 107, 5-(5,6-Dimethoxy-1H-benzimidazol-1-yl)-3-{[2-(trifluoromethoxy)benzyl]oxy}thiophene-2-carboxamide] | 1000 to 10000
12 | < 1000 | < 1000 | > 10000 | < 100 | < 1000 | < 1000 | < 1000 | COc1cc2ncn(-c3cc(OCc4ccccc4OC(F)F)c(C(N)=O)s3)c2cc1OC [Example 108, 3-{[2-(Difluoromethoxy)benzyl]oxy}-5-(5,6-dimethoxy-1H-benzimidazol-1-yl)thiophene-2-carboxamide] | > 10000
13 | 1000 to 10000 | 1000 to 10000 | > 10000 | < 100 | 1000 to 10000 | < 1000 | 1000 to 10000 | COc1cc2ncn(-c3cc(OCc4ccncc4Br)c(C(N)=O)s3)c2cc1OC [Example 120, 3-[(3-Bromopyridin-4-yl)methoxy]-5-(5,6-dimethoxy-1H-benzimidazol-1-yl)thiophene-2-carboxamide] | > 10000
14 | < 1000 | < 1000 | 1000 to 10000 | < 100 | < 1000 | < 1000 | < 1000 | COc1cc2ncn(-c3cc(OC(C)c4ccccc4C(F)(F)F)c(C(N)=O)s3)c2cc1OC (centres unmarked) [Example 127] | 1000 to 10000
15 | < 1000 | 1000 to 10000 | > 10000 | < 100 | < 1000 | < 1000 | < 1000 | COc1cc2ncn(-c3cc(OS(=O)(=O)c4ccccc4C)c(C(N)=O)s3)c2cc1OC [Example 154, 2-(Aminocarbonyl)-5-(5,6-dimethoxy-1H-benzimidazol-1-yl)thien-3-yl-2-methylbenzenesulfonate] | > 10000
